Measured values as given in ChEMBL document CHEMBL1201862, “PubChem BioAssay data set” (2004).
“And” between values parts separate entries of the source, which are not always exact repeats. Equal values may be shown once. Where a name gives a salt, the structure may show the parent alone.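 Each compound was tested at five concentrations against cells in 96-well plates for 48 hours. Here, GI50 denotes the concentration required for 50% inhibition of growth.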 The source made the active and inactive calls. No stated cut-off is given here; in the data, active = GI50 up to about 1.1 µM and inactive = higher.

Tests used:
Experiment in all cases: growth of human tumour cells (NCI), 48 h
HCC 2998 = tested on: HCC 2998
HT-29 = tested on: HT-29
NCI-H460 = tested on: NCI-H460
MCF7 = tested on: MCF7
CCRF-CEM = tested on: CCRF-CEM
SF-539 = tested on: SF-539
DMS-114 = tested on: DMS-114
SK-MEL-28 = tested on: SK-MEL-28
COLO 205 = tested on: COLO 205
SN12C = tested on: SN12C
LOX IMVI = tested on: LOX IMVI
XF498 = tested on: XF498
A549 = tested on: A549
SK-MEL-2 = tested on: SK-MEL-2
A498 = tested on: A498
OVCAR-4 = tested on: OVCAR-4
K562 = tested on: K562
KM12 = tested on: KM12
RXF 393 = tested on: RXF 393
Malme-3M = tested on: Malme-3M

SMILES	GI50 (HCC 2998)	GI50 (HT-29)	GI50 (NCI-H460)	GI50 (MCF7)	GI50 (CCRF-CEM)	GI50 (SF-539)	GI50 (DMS-114)	GI50 (SK-MEL-28)	GI50 (COLO 205)	GI50 (SN12C)	GI50 (LOX IMVI)	GI50 (XF498)	GI50 (A549)	GI50 (SK-MEL-2)	GI50 (A498)	GI50 (OVCAR-4)	GI50 (K562)	GI50 (KM12)	GI50 (RXF 393)	GI50 (Malme-3M)
Nc1ccc2cc3ccc(N)cc3nc2c1 [PROFLAVINE SULFATE]	794 nM (active) and 1.09 µM (active)	953 nM (active) and 668 nM (active)	528 nM (active) and 485 nM (active)	0.638 µM (active)	508 nM (active) and 601 nM (active)	1.26 µM (inactive) and 1.16 µM (inactive)	1.21 µM (inactive)	2.45 µM (inactive) and 1.88 µM (inactive)	561 nM (active) and 543 nM (active)	843 nM (active) and 1.04 µM (active)	789 nM (active) and 764 nM (active)	1.53 µM (inactive)								
O=C1c2ccccc2C(=O)c2c1ccc1c2N=C(c2ccc(F)cc2)CC(c2ccc(Cl)c(Cl)c2)N1 (stereo not given)	13.6 µM (inactive)	13.5 µM (inactive)	16.9 µM (inactive)		2.13 µM (inactive)	19.3 µM (inactive)	10.1 µM (inactive)	19.3 µM (inactive)	18.1 µM (inactive)	17.3 µM (inactive)	3.94 µM (inactive)		18.4 µM (inactive)	14 µM (inactive)	19.5 µM (inactive)	19 µM (inactive)	7.16 µM (inactive)	6 µM (inactive)		
CC1OC(OC2C(OC(=O)[C@@H]3CC(C)(C)C[C@H]4C5=CC[C@@H]6[C@@]7(C)C[C@H](O)[C@H](OC8OC(CO)C(O)C(O)C8O)[C@@](C)(CO)[C@@H]7[C@H](O)C[C@@]6(C)[C@]5(C)CC[C@@]34C)OCC(O)C2O)C(O)C(O)C1O (stereo not given in full)	> 7.5 µM (inactive)	> 7.5 µM (inactive)	> 7.5 µM (inactive)	> 7.5 µM (inactive)	> 7.5 µM (inactive)	> 7.5 µM (inactive)			> 7.5 µM (inactive)	> 7.5 µM (inactive)	> 7.5 µM (inactive)			> 7.5 µM (inactive)		> 7.5 µM (inactive)	> 7.5 µM (inactive)	> 7.5 µM (inactive)	> 7.5 µM (inactive)	> 7.5 µM (inactive)
C=CC(OCC)(OCC)OCC	> 100 µM (inactive)	> 100 µM (inactive)	> 100 µM (inactive)		> 100 µM (inactive)	> 100 µM (inactive)	15.6 µM (inactive)	> 100 µM (inactive)	> 100 µM (inactive)	> 100 µM (inactive)	66.2 µM (inactive)	> 100 µM (inactive)	> 100 µM (inactive)	> 100 µM (inactive)	> 100 µM (inactive)	> 100 µM (inactive)	> 100 µM (inactive)	> 100 µM (inactive)	> 100 µM (inactive)	> 100 µM (inactive)
CCOC(=O)CNC(=O)N(CC)C12CC3CC(CC(C3)C1)C2	158 µM (inactive)	132 µM (inactive)	154 µM (inactive)	148 µM (inactive)	135 µM (inactive)	123 µM (inactive)	107 µM (inactive)	206 µM (inactive)	110 µM (inactive)	147 µM (inactive)	115 µM (inactive)	125 µM (inactive)	166 µM (inactive)	103 µM (inactive)	115 µM (inactive)	188 µM (inactive)	122 µM (inactive)	125 µM (inactive)	152 µM (inactive)	133 µM (inactive)
O=C(O)CN1CCCC(Cc2c[nH]c3ccccc23)C1 (stereo not given)	> 100 µM (inactive)					> 100 µM (inactive)		> 100 µM (inactive)	> 100 µM (inactive)		> 100 µM (inactive)		> 100 µM (inactive)	> 100 µM (inactive)		> 100 µM (inactive)	40.6 µM (inactive)	> 100 µM (inactive)	> 100 µM (inactive)	> 100 µM (inactive)
NC(=O)Nc1cc(O)ccc1/N=N/c1ccc(S(=O)(=O)Nc2ccccn2)cc1	> 100 µM (inactive)	> 100 µM (inactive)	> 100 µM (inactive)		> 100 µM (inactive)	> 100 µM (inactive)	> 100 µM (inactive)	> 100 µM (inactive)	> 100 µM (inactive)	> 100 µM (inactive)	> 100 µM (inactive)	> 100 µM (inactive)	> 100 µM (inactive)	> 100 µM (inactive)	> 100 µM (inactive)	> 100 µM (inactive)	> 100 µM (inactive)	> 100 µM (inactive)		> 100 µM (inactive)
O=C1c2cccc3cc4ccccc4c(c23)C(=O)N1CCNCCN1C(=O)c2cccc3cc4ccccc4c(c23)C1=O	0.912 µM (active)	0.351 µM (active)	0.0541 µM (active)	0.282 µM (active)	0.199 µM (active)	0.773 µM (active)	0.23 µM (active)	0.592 µM (active)	0.731 µM (active)	0.306 µM (active)	0.233 µM (active)	0.254 µM (active)	0.186 µM (active)	1.58 µM (inactive)	0.716 µM (active)	0.625 µM (active)	0.301 µM (active)	3.93 µM (inactive)	0.525 µM (active)	0.465 µM (active)
COC(=O)C1=CC[C@@H]2C(C(=O)O)=CO[C@@H](OC3OC(CO)C(O)C(O)C3O)[C@H]12 (stereo not given in full)	> 110 µM (inactive)	> 300 µM (inactive)	> 300 µM (inactive)	> 114 µM (inactive)	> 119 µM (inactive)	> 300 µM (inactive)	> 300 µM (inactive)	> 300 µM (inactive)	> 300 µM (inactive)	> 300 µM (inactive)	> 300 µM (inactive)	> 228 µM (inactive)	> 300 µM (inactive)	> 300 µM (inactive)	> 30 µM (inactive)	> 300 µM (inactive)	> 300 µM (inactive)	> 300 µM (inactive)	> 300 µM (inactive)	> 263 µM (inactive)
COc1cc(OC)c(SSCCCCS(=O)O)c(OC)c1	20.1 µM (inactive)	16.4 µM (inactive)	17.1 µM (inactive)		5.45 µM (inactive)	16.1 µM (inactive)	16.6 µM (inactive)	15 µM (inactive)	17.5 µM (inactive)	17.6 µM (inactive)	10.7 µM (inactive)	13.9 µM (inactive)	19 µM (inactive)	19.5 µM (inactive)	14.6 µM (inactive)	14.3 µM (inactive)	17.4 µM (inactive)	14.9 µM (inactive)	14.5 µM (inactive)	12.2 µM (inactive)
COc1ccc(/C=C2\Oc3cc(OC(C)=O)ccc3C2=O)cc1	> 100 µM (inactive)		> 100 µM (inactive)	> 100 µM (inactive)	73.6 µM (inactive)	> 100 µM (inactive)		> 100 µM (inactive)	> 100 µM (inactive)	> 100 µM (inactive)			> 100 µM (inactive)			> 100 µM (inactive)	78.2 µM (inactive)	> 100 µM (inactive)	> 100 µM (inactive)	
CC1CC2C3CC(F)C4=CC(=O)C=CC4(C)C3(F)C(O)CC2(C)C1(O)C(=O)COC(=O)C(C)(C)C (stereo not given)	> 100 µM (inactive)	> 100 µM (inactive)	47 µM (inactive)		0.0203 µM (active)	87.5 µM (inactive)	> 100 µM (inactive)	37.2 µM (inactive)	> 100 µM (inactive)		> 100 µM (inactive)	> 100 µM (inactive)	54.6 µM (inactive)	> 100 µM (inactive)		27.4 µM (inactive)	> 100 µM (inactive)	> 100 µM (inactive)	18.7 µM (inactive)	> 100 µM (inactive)
O=C1C[C@H](c2ccccc2)C2(C(=O)c3ccccc3C2=O)[C@@H](c2ccccc2)C1	23.3 µM (inactive)	26.4 µM (inactive)	25.8 µM (inactive)	37.2 µM (inactive)	9.55 µM (inactive)			19 µM (inactive)	18.4 µM (inactive)	24.2 µM (inactive)				12.8 µM (inactive)	7.64 µM (inactive)	14.4 µM (inactive)	9.86 µM (inactive)	> 10 µM (inactive)	6.04 µM (inactive)	36.7 µM (inactive)
CCC1C[N+]23CCc4c([nH]c5ccccc45)C2CC1CC3 (stereo not given)	> 100 µM (inactive)	> 100 µM (inactive)	49.4 µM (inactive)		51.2 µM (inactive)		53.5 µM (inactive)	> 100 µM (inactive)	98.4 µM (inactive)	76.4 µM (inactive)	68.1 µM (inactive)	42.9 µM (inactive)		> 100 µM (inactive)		81.5 µM (inactive)	70.8 µM (inactive)	64.7 µM (inactive)	> 100 µM (inactive)	33.7 µM (inactive)
O=C(O)c1cccc2cccc(-c3c4ccc(=O)cc-4oc4cc(O)ccc34)c12	> 100 µM (inactive)	> 100 µM (inactive)	> 100 µM (inactive)	> 100 µM (inactive)	69.2 µM (inactive)	> 100 µM (inactive)		> 100 µM (inactive)	98.6 µM (inactive)	> 100 µM (inactive)	> 100 µM (inactive)		> 100 µM (inactive)	> 100 µM (inactive)	> 100 µM (inactive)	> 100 µM (inactive)	31 µM (inactive)	> 100 µM (inactive)	> 100 µM (inactive)	> 100 µM (inactive)
